From patent US20240383856A1 (Zedira GmbH, priority 2021, published 2024) come the findings set out here.

The target in data set [1] is T1, recombinant human transglutaminase 2 (Homo sapiens, UniProt P21980).
T1 construct: purchased Zedira T022
T1 sequence (P21980 1-687): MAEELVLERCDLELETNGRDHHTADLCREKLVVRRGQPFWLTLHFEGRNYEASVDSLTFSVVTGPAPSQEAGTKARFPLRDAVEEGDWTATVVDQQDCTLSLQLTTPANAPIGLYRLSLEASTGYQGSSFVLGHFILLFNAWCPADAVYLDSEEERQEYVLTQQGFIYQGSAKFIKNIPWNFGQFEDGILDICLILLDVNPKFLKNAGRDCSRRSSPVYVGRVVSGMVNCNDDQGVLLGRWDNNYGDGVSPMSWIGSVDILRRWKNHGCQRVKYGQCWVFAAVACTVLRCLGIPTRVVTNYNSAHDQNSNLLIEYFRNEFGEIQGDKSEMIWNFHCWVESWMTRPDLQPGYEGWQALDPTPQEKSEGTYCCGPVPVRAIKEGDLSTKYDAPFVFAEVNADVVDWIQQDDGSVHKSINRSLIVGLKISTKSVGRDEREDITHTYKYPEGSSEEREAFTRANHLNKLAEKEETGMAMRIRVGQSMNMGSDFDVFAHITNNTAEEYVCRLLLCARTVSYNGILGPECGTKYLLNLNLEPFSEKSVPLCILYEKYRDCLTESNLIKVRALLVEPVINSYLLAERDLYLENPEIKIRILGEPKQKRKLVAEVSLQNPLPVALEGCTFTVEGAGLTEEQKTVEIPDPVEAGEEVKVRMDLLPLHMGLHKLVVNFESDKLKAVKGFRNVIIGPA
In words: Transglutaminase assay (DCC-assay): incorporation of dansylcadaverine into dimethylcasein. Format: biochemical. Conditions: recombinant human TG2 10 nM; dansylcadaverine incorporation into dimethylcasein; read-out: IC50 TG2. In outline: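 IC50 is the inhibitor level that blocks 50% of initial activity. Activity is the fluorescence slope (λex 330, λem 500 nm) between 20 and 30 min of a 37 °C run, relative to a 2% DMSO control. The enzyme is recombinant human tissue transglutaminase, 10 nM final, tested against a 1:2 inhibitor dilution series in a pH 8.0 mix with 10 mM CaCl2, 10 mM glutathione, 16.7 µM dansylcadaverine and 4 µM N,N-dimethylcasein.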

Data set [2] is described as follows: logD by shake flask method (octanol / PBS pH 7.4, HPLC). Format: physicochemical. Conditions: octanol / PBS pH 7.4, shake flask. The gist of the method:
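LogD obtained by HPLC measurement of how the compound distributes between PBS (pH 7.4) and octanol in a shake-flask experiment.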

A short description of data set [3]: Caco-2 permeability assay (CacoReady kit). Conditions: human, Caco-2, Caco-2 barrier, CacoReady kit; above 1×10^−6 cm/s classified as permeable. Format: in vitro ADME. In outline:
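Intestinal permeability modelled with kit-supplied Caco-2 barriers, run as the maker specifies; each compound reported as Papp.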

In general, IC50 refers to the concentration needed to halve the response being measured. As usually defined, the logD is the decadic logarithm of the distribution of all forms, ionised or not, between an organic phase and buffer at a given pH. A low value points to lower lipophilicity. As a reminder, the Papp is the rate of passage across a membrane or cell layer, normalised by area and donor concentration. A low value points to slow passage.

A value given as a limit tells only on which side of the number the result lay.

As for `CNC(=O)C(=O)CC[C@H](NC(=O)c1cc(Cl)c(Cl)s1)C(=O)Nc1cccn(CC(=O)NC2C3CC4CC(C3)CC2C4)c1=O` (stereo partly drawn) [II-49, (S)-2-(4,5-dichlorothiophene-2-carboxamido)-N1-(1-(2-(2-adamantylamino)-2-oxoethyl)-2-oxo-1,2-dihydropyridin-3-yl)-N6-methyl-5-oxohexanediamide], in data set [1], the IC50 is less than 40 nM. Moreover, the logD in data set [2] is 3 to 5. This compound also displayed a Papp in data set [3] of 1 to 10 ×10⁻⁶ cm/s.

Turning to `CNC(=O)C(=O)CC[C@H](NC(=O)c1ccncc1)C(=O)Nc1cccn(CC(=O)NC2C3CC4CC(C3)CC2C4)c1=O` (stereo partly drawn) [II-112, (S)-2-(isonicotinamido)-N1-(1-(2-(2-adamantylamino)-2-oxoethyl)-2-oxo-1,2-dihydropyridin-3-yl)-N6-methyl-5-oxohexanediamide], in data set [1], the IC50 was less than 40 nM. In data set [2], the logD lay in the range of 1 to 3. For the same compound, the Papp in data set [3] was less than 1 ×10⁻⁶ cm/s.

As to `CNC(=O)C(=O)CC[C@H](NC(=O)c1sc(Br)nc1C)C(=O)Nc1cccn(CC(=O)NC2C3CC4CC(C3)CC2C4)c1=O` (stereo partly drawn) [II-14, (S)--(2-bromo-4-methylthiazole-5-carboxamido)-N1-(1-(2-(2-adamantylamino)-2-oxoethyl)-2-oxo-1,2-dihydropyridin-3-yl)-N6-methyl-5-oxohexanediamide], the IC50 in data set [1] is less than 40 nM. Also, the pH-dependent lipophilicity (logD) in data set [2] was 1 to 3. For the same compound, the Papp in data set [3] lay within 1 to 10 ×10⁻⁶ cm/s.

For the compound `O=C(Cn1cccc(NC(=O)[C@H](CCC(=O)C(=O)NCc2ccccc2)NC(=O)c2cc3ccccc3o2)c1=O)NC1C2CC3CC(C2)CC1C3` (stereo partly drawn) [II-123, (S)-2-(benzofuran-2-carboxamido)-N6-benzyl-N1-(1-(2-(2-adamantylamino)-2-oxoethyl)-2-oxo-1,2-dihydropyridin-3-yl)-5-oxohexanediamide], the IC50 in data set [1] lay in the range of 400 to 2500 nM. Moreover, in data set [2], the logD was 3 to 5. In data set [3], this compound showed a Papp of 1 to 10 ×10⁻⁶ cm/s.

As for `CNC(=O)C(=O)CC[C@H](NC(=O)c1ccnn1C)C(=O)Nc1cccn(CC(=O)N[C@@H]2C[C@@H]3CC[C@H]2C3)c1=O` [II-158, (S)-N1-(1-(2-((1S,2R,4R)-bicyclo[2.2.1]heptan-2-ylamino)-2-oxoethyl)-2-oxo-1,2-dihydropyridin-3-yl)-N6-methyl-2-(1-methyl-1H-pyrazole-5-carboxamido)-5-oxohexanediamide], in data set [1], the IC50 lay in the range of 40 to 400 nM. The same compound returned a logD in data set [2] of less than 1. In data set [3], the Papp was less than 1 ×10⁻⁶ cm/s.

Take `CNC(=O)C(=O)CC[C@H](NC(=O)c1cc2ccccc2s1)C(=O)Nc1cccn(CC(=O)NC2C3CC4CC(C3)CC2C4)c1=O` (stereo partly drawn): the IC50 in data set [1] was less than 40 nM. This compound also came in with a logD in data set [2] of 3 to 5. In addition, the Papp in data set [3] was in the range of 1 to 10 ×10⁻⁶ cm/s.

With `CNC(=O)C(=O)CC[C@H](NC(=O)c1oc2ccccc2c1C)C(=O)Nc1cccn(CC(=O)N(C)C2C3CC4CC(C3)CC2C4)c1=O` (stereo partly drawn) [II-67, (S)-N1-(1-(2-(2-adamantyl(methyl)amino)-2-oxoethyl)-2-oxo-1,2-dihydropyridin-3-yl)-N6-methyl-2-(3-methylbenzofuran-2-carboxamido)-5-oxohexanediamide], the IC50 in data set [1] is 400 to 2500 nM. This compound also yielded a logD in data set [2] of 3 to 5. For the same compound, the Papp in data set [3] was 1 to 10 ×10⁻⁶ cm/s.

`CNC(=O)C(=O)CC[C@H](NC(=O)c1cc2ccccc2o1)C(=O)Nc1cccn(CC(=O)NC2C3CC4CC(C3)CC2C4)c1=O` (stereo partly drawn) [II-2, (S)-2-(benzofuran-2-carboxamido)-N1-(1-(2-(2-adamantylamino)-2-oxoethyl)-2-oxo-1,2-dihydropyridin-3-yl)-N6-methyl-5-oxohexanediamide]: the IC50 in data set [1] was less than 40 nM. For the same compound, in data set [2], the logD is 1 to 3. Besides, the Papp in data set [3] was in the range of 1 to 10 ×10⁻⁶ cm/s.

In the case of `CNC(=O)C(=O)CC[C@H](NC(=O)c1cc(C(=O)OC)cc([N+](=O)[O-])c1)C(=O)Nc1cccn(CC(=O)NC2C3CC4CC(C3)CC2C4)c1=O` (stereo partly drawn) [II-62, (S)-methyl 3-(1-(1-(2-(2-adamantylamino)-2-oxoethyl)-2-oxo-1,2-dihydropyridin-3-ylamino)-6-(methylamino)-1,5,6-trioxohexan-2-ylcarbamoyl)-5-nitrobenzoate], the IC50 in data set [1] is less than 40 nM. In data set [2], this compound returned a logD of 1 to 3. For the same compound, the Papp in data set [3] is 1 to 10 ×10⁻⁶ cm/s.
